Test: mn = molality of the nth substance listed, in mol/kg
Conditions: 101 kPa, Liquid, Vibrating tube method

NCCO [2-aminoethan-1-ol] + O
mass density [kg/m3]
Conditions | 293.16 K | 297.14 K | 301.14 K | 305.14 K | 309.14 K | 313.14 K | 317.14 K | 320.14 K
m1 = 2.8 | 1004.53 | 1003.31 | 1001.95 | 1000.48 | 998.89 | 997.21 | 995.42 | 994.02
m1 = 7.01 | 1013.19 | 1011.51 | 1009.75 | 1007.89 | 1005.96 | 1003.95 | 1001.85 | 1000.22

— the NIST ThermoML archive (doi:10.1021/je301030z)
